Assay results: PMC12508057, “Discovery of ETI41 and ETI60: novel selective endosomal Toll-like receptor inhibitors for the treatment of autoimmune diseases” (Experimental & Molecular Medicine, 2025)
Like-named read-outs stand apart in the source and are kept apart here.

Assays:
TLR9 = molecular target: T1, TLR9 (Mus musculus, UniProt Q9EQU3); assay: TLR9 inhibition, TNF-α secretion (ELISA) in RAW 264.7; format: cell-based; details: for TLR9 TI value: therapeutic index, RAW 264.7
T1 construct: endogenous in cells; host or cells: RAW 264.7
T1 sequence (Q9EQU3 26-1032): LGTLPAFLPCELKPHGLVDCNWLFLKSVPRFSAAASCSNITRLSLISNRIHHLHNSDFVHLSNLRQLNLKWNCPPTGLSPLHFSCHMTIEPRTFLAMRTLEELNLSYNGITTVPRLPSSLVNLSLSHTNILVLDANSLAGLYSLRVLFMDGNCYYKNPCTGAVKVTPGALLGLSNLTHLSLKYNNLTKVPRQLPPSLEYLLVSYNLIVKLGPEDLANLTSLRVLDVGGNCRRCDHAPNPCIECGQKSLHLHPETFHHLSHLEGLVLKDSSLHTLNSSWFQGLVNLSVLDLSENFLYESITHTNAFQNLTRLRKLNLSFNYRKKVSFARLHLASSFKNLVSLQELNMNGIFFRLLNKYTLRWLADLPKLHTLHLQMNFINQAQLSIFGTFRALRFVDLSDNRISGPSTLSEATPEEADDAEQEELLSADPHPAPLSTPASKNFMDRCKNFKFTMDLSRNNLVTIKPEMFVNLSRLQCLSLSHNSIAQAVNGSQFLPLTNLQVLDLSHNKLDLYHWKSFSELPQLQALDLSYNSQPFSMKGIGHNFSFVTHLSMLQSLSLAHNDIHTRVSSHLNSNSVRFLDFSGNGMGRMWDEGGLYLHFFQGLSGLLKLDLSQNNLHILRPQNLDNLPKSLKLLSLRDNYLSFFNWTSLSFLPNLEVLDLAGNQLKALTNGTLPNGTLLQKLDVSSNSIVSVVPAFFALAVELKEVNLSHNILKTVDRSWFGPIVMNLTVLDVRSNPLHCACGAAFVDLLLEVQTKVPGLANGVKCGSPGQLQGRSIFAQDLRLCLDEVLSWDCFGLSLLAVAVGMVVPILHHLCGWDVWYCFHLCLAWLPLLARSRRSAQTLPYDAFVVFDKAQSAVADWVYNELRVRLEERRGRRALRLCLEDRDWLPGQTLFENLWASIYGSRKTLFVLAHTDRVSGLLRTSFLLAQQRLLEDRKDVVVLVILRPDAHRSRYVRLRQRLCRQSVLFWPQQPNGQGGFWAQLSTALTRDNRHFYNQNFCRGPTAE
Description: RAW 264.7 and differentiated THP-1 cells were seeded into 96-well plates at 2 × 10^4 cells per well, while Daudi cells were seeded at 5 × 10^4 cells per well. After stabilization for 30 min, cells were stimulated with specific TLR agonists for 4 or 24 h. Supernatants were diluted and transferred to precoated ELISA plates to measure TNF-α secretion using kits from Invitrogen. Optical absorbance was measured using a BioTek Synergy HTX multimode microplate reader, and data were interpolated using BioTek Gen5 software.
One-tailed paired Student’s t-tests were performed using Microsoft Excel (Microsoft). Semi-logarithmic conversions and nonregression curve analyses for calculating 50% lethal concentration (LC50) and 50% inhibitory concentration (IC50) values were conducted using GraphPad Prism 7.0 (GraphPad). The therapeutic index was calculated as […]. Animal experimental results are expressed as mean ± standard deviation and analyzed using SPSS v.20 (IBM SPSS Statistics). Homogeneity of variance was assessed using Levene’s test.
The cells were activated with agonistic ligands: […], TLR3 (poly I:C, 2 μg/ml, 24 h), TLR4 (LPS, 10 or 100 ng/ml, 4 h), TLR5 (FLA-ST, 500 ng/ml, 4 h), TLR7 (ORN06/LyoVec, 2 μg/ml, 24 h; and IMQ, 1 μg/ml, 4 h), TLR8 (TL8-506, 2 μg/ml, 24 h) and TLR9 (ODN2395, 1 μM, 4 h) at various concentrations in RAW 264.7 cells, human Daudi cells and THP-1 cells. Data are from at least three independent experiments (n = 3) and statistical differences between the induced case and other cases were analyzed and verified using a one-tailed Student’s t-test (*P < 0.05, **P < 0.01, ***P < 0.001).

SLE in MRL/lpr mice = assay: MRL/lpr mouse model of SLE; format: in vivo; details: 30 mg/kg oral daily for 39 days; for Anti-dsDNA antibodies / Antinuclear antibody (ANA) / IgG in the kidney: compared with HCQ 60 mg/kg; for Alopecia and skin rashes: compared with vehicle and HCQ
Description: MRL/MpJ-Fas^lpr/J lupus-prone mice were purchased from Jackson Laboratory to evaluate the effects of ETI41 and ETI60 on the pathophysiology of genetic SLE. This study was approved by the IACUC, Ajou University (approval no. 2019-0046). Fourteen-week-old mice were assigned to the following treatment groups: vehicle (n = 3), ETI60 (n = 3), ETI41 (n = 4) and HCQ (n = 3). These groups were administered daily oral doses of 30 mg/kg ETI41 or ETI60, or 60 mg/kg HCQ for 39 days. All compounds were dissolved in a vehicle comprising ethanol, polyethylene glycol (PEG400) and distilled water at a 1:4:5 ratio. The body weights of the mice were measured every 3 days. Mice were anesthetized in an induction chamber with a gas mixture of 4% isoflurane in 70:30 […] and O2, delivered at a flow rate of 0.8 l/min. Upon completion of the treatment period, paired axillary and popliteal lymph nodes were collected and weighed. Blood samples were taken and maintained in BD Microtainer SST tubes (BD Biosciences), with serum isolated through centrifugation at 3,393g for 30 min at 4 °C. Serum markers, including complement component C3, ANA, anti-dsDNA and total IgG, were evaluated using ELISA kits (MyBioSource). Renal IgG levels were monitored by western blotting using anti-mouse IgG (Thermo Fisher Scientific) and β-actin antibodies (Bethyl Laboratories). Statistical significance among groups was analyzed using IBM SPSS Statistics (v.25.0; IBM Corporation), with statistical significance set at P < 0.05.
Fig. 5 Therapeutic efficacy of ETI41 and ETI60 in SLE mouse model. a Summary of the experimental validation of ETI41 and ETI60 in the MRL/lpr female mouse model of SLE. […] Statistical differences between the induced case and other cases were analyzed and verified using a one-tailed Student’s t-test (*P < 0.05, **P < 0.01, ***P < 0.001).

| Structure (SMILES) | IC50 (TLR9) | TLR9 TI value (TLR9) | Body weight (SLE in MRL/lpr mice) | Lymph node weights (SLE in MRL/lpr mice) | Anti-dsDNA antibodies (SLE in MRL/lpr mice) | Antinuclear antibody (ANA) (SLE in MRL/lpr mice) | IgG in the kidney (SLE in MRL/lpr mice) | Alopecia and skin rashes (SLE in MRL/lpr mice) | IC50 (TLR9; RAW 264.7 cell line, read-out: TLR9 IC50 (mTNFα)) | Complement C3 levels (SLE in MRL/lpr mice; serum) |
| --- | --- | --- | --- | --- | --- | --- | --- | --- | --- | --- |
| Cc1cc2c(N)c3c(nc2n1CCCN(C)C)CCCCCC3 [ETI41] | 160 nM | 419.88 | prevented weight gain or loss | notably lower | reduced | reduced | reduced | substantially reduced | – | – |
| COc1ccc2c3c(N)c4c(nc3n(CCCN(C)C)c2c1)CCCC4 [ETI60] | – | 422.71 | prevented weight gain or loss | notably lower | reduced | reduced | reduced | substantially reduced | 120 nM | increased |
